Results from PMC10584170, “Machine learning-based phenotypic imaging to characterise the targetable biology of Plasmodium falciparum male gametocytes for the development of transmission-blocking antimalarials” (PLOS Pathogens, 2023).

Tests used:
[1] = test system: P. falciparum female gametocytes; assay: P. falciparum Dual Gamete Formation Assay (PfDGFA), female readout (Pfs25-positive female gametes); format: cell-based, Plasmodium falciparum NF54; conditions: for Average inhibition female (%): average of replicates; for % inhibition female (individual replicates) R1: replicate R1; for % inhibition female (individual replicates) R3: replicate R3; for % inhibition female (individual replicates) R4: replicate R4
Experimental: (§1) P. falciparum NF54 (originally isolated from an imported malaria case in the Netherlands in the 1980s; BEI Resources, cat. No. MRA-1000) strain asexual parasites were maintained between 0.3–5% parasitaemia by regular passage in complete culture medium (RPMI supplemented with 25 mM HEPES, 50 μg ml^−1 hypoxanthine, 4.8 g l^−1 NaHCO3, 2mM L-glutamine, 5% pooled type AB serum, 0.5% Albumax II (Gibco)) at 4% haematocrit in washed whole blood (National Blood and Transfusion Service or Centro de Transfusiones de la Comunidad de Madrid CTCM) under a 1% O2/3% CO2/96% N2 environment. Gametocytes were induced by seeding culture flasks at 2% parasitaemia/4% haematocrit and subjecting them to daily medium changes for 14 days whilst maintaining a temperature of 37°C at all times. On Day 14, the maturity of gametocytes was assessed by quantifying male gametogenesis (exflagellation). A 20 μl sample of gametocyte culture was mixed with equal volume of ookinete medium (complete culture medium supplemented with 0.1 μM xanthurenic acid) at room temperature and transferred to a haemocytometer. After 20 min at room temperature, exflagellation was accurately quantified as described in Delves et al. 2016 [17].
(§2) The Pf DGFA was performed as described in Delves et al. 2016 [17]. […] Plates were then incubated for 24 h at 37°C in a humidified box under a 1% O2/3% CO2/96% N2 gas mix. Gametogenesis was triggered by addition of 10 μl per well of ookinete medium + 0.27 μg ml^-1 Cy3-labelled anti-Pfs25 antibody. Plates were incubated on a metal block at 4°C for 4 min to ensure even cooling, then 28°C for a further 4 min. Exflagellation was recorded by capturing 10 frames over 1 s under brightfield illumination using a x4 objective with a 1.5x zoom (effectively x6) attached to an automated Nikon Ti fluorescence microscope. After recording exflagellation, plates were incubated for a further 24 h in the dark at 28°C to ensure maximal expression of Pfs25 by female gametes. The plates were then returned to the microscope and female gametes imaged at x6 using fluorescence microscopy.
(§3) Exflagellation centres and female gametes were quantified using custom image analysis pipelines developed within ICY Bioimage Analysis (https://icy.bioimageanalysis.org/).

[2] = test system: P. falciparum male gametocytes; assay: P. falciparum Dual Gamete Formation Assay (PfDGFA), male readout (exflagellation); format: cell-based, Plasmodium falciparum NF54; conditions: for Average inhibition male (%): average of replicates; for % inhibition male (individual replicates) R1: replicate R1; for % inhibition male (individual replicates) R3: replicate R3; for % inhibition male (individual replicates) R4: replicate R4; for Activity: hit = >50% inhibition in male or female readout in at least 3 replicates, 0 = no class assigned
Experimental: as §1, §2, §3

[3] = 2µM, 24h preincubation with gametocytes prior to induction of gametogenesis
[4] = 2µM, 24h preincubation, hits selected on >50% inhibition in the female readout across replicates
[5] = 2µM, 24h preincubation, hits selected on >50% inhibition in the male readout across replicates
[6] = PfDGFA at 2µM, 24h preincubation
[7] = PfDGFA at 2µM, 24h preincubation with gametocytes prior to induction of gametogenesis
[8] = 2µM, 24h preincubation, number of replicates with >50% inhibition in the female readout
[9] = 2µM, 24h preincubation, number of replicates with >50% inhibition in the male readout
[10] = 2µM, 24h preincubation with gametocytes

Compound | Average inhibition female (%) [1, 3] | % inhibition female (individual replicates) R1 [1, 3] | % inhibition female (individual replicates) R3 [1, 3] | % inhibition female (individual replicates) R4 [1, 3] | HitlevelF [1, 4] | Average inhibition male (%) [2, 3] | % inhibition male (individual replicates) R1 [2, 3] | % inhibition male (individual replicates) R3 [2, 3] | % inhibition male (individual replicates) R4 [2, 3] | HitlevelM [2, 5] | Activity [2, 6] | % inhibition female (individual replicates) R1 [1, 7] | % inhibition female (individual replicates) R3 [1, 7] | % inhibition female (individual replicates) R4 [1, 7] | Average inhibition female (%) [1, 6] | % inhibition male (individual replicates) R1 [2, 7] | % inhibition male (individual replicates) R3 [2, 7] | % inhibition male (individual replicates) R4 [2, 7] | Average inhibition male (%) [2, 6] | also measured
Br.Oc1cccc(CCNCCCCCCNCCc2ccc(Cl)cc2)c1 [TCMDC-131285] | 14.3% | 12.4% | 15.9% | 17.3% | 0 | 17.5% | 13.8% | 6.4% | 28.9% | 0 | 0 |  |  |  |  |  |  |  |  | 
Cl.NC1=NC(CCc2ccccc2)N(c2ccc(Cl)cc2)C(N)=N1 (centres unmarked) [TCMDC-131290] |  |  |  |  |  |  |  |  |  |  |  | 1.0% | -2.9% | -19.8% | -10.7% | -21.3% | -9.1% | -39.8% | -16.9% | 
Br.CCCC1N=C(N)N=C(N)N1c1ccc(CC)cc1 (centres unmarked) [TCMDC-131300] | 5.7% | 16.1% | 10.4% | 12.0% | 0 | -2.2% | 7.1% | 2.2% | -35.1% | 0 | 0 |  |  |  |  |  |  |  |  | 
CNCCCCCCOc1ccc(CC(C)NCC(O)c2cccc(C(F)(F)F)c2)cc1.Cl (centres unmarked) [TCMDC-131523] |  |  |  |  |  |  |  |  |  |  |  | 10.7% | -17.9% | 1.1% | -0.7% | 2.8% | -13.3% | 4.2% | -0.8% | 
C[C@H](Cc1ccc(OCCNC[C@H](O)c2cccc(Cl)c2)cc1)NC[C@H](O)c1ccc(Cl)c(Cl)c1.O [TCMDC-131547] | 17.7% | 20.3% | 33.9% | 3.3% | 0 | 22.6% | 62.1% | 23.6% | 9.5% | 1 | 0 |  |  |  |  |  |  |  |  | 
C[C@H](Cc1ccc(S(=O)(=O)c2ccc(C[C@@H](C)NC[C@H](O)c3cccc(Cl)c3)cc2)cc1)NC[C@H](O)c1cccc(Cl)c1.Cl [TCMDC-131561] | 28.9% | 27.9% | 9.1% | 30.5% |  | 47.9% | 47.0% | 11.1% | 74.2% |  |  |  |  |  |  |  |  |  |  | HitlevelF [1, 8]: 0; HitlevelM [2, 9]: 2
CC1(C)N=C(NC(=O)c2ccc([N+](=O)[O-])cc2)N=C(N)N1OCc1ccc2ccccc2c1 [TCMDC-131580] |  |  |  |  |  |  |  |  |  |  |  | 12.5% | -19.7% | 0.76% | 3.4% | 21.0% | -18.0% | -29.1% | -7.9% | 
CC1(C)N=C(N)N=C(N)N1OCc1cc(Cl)c(CON2C(N)=NC(N)=NC2(C)C)cc1Cl [TCMDC-131624] |  |  |  |  |  |  |  |  |  |  |  | 0.3% | 11.6% | 5.2% | 2.9% | 2.1% |  | -25.6% | -4.5% | 
Cc1ccc(CON2C(N)=NC(N)=NC2(C)C)c(Cl)c1.Cc1ccc(CON2C(N)=NC(N)=NC2(C)C)cc1Cl [TCMDC-131625] |  |  |  |  |  |  |  |  |  |  |  | -4.8% | -23.0% | 21.6% | -0.55% | 26.3% | -30.0% | -18.5% | -5.6% | 
CC(=O)c1ccc(NC(=O)NNC(=O)c2ccc(CCN3CCC(c4nc(COCC(F)(F)F)c(-c5ccc(F)cc5)o4)CC3)cc2)cc1 [TCMDC-131905] |  |  |  |  |  |  |  |  |  |  |  | 5.8% | -31.0% | 36.9% | 3.6% | 1.3% | 7.6% | 18.2% | 9.5% | 
COc1cc2ncnc(Nc3ccc(OCc4ccccc4)c(OCc4ccccc4)c3)c2cc1OC.Cl [TCMDC-131922] | 10.3% | 5.3% | 31.5% | 4.3% | 0 | 5.7% | 10.5% | 8.7% | 6.9% | 0 | 0 |  |  |  |  |  |  |  |  | 
Nc1nc(N)c2c(ccc3c2cnn3Cc2cccnc2)n1 [TCMDC-131932] | 18.1% | 3.3% | 58.3% | 1.8% |  | 12.5% | 4.3% | 31.7% | 1.1% |  |  |  |  |  |  |  |  |  |  | HitlevelF [1, 8]: 1; HitlevelM [2, 9]: 0
COc1ccc2nc(Nc3nc4cnccc4[nH]3)sc2c1 [TCMDC-131950] | 7.4% | 12.1% | -4.5% | 3.8% | 0 | -15.4% | -6.4% | -26.4% | -8.5% | 0 | 0 |  |  |  |  |  |  |  |  | 
O=[N+]([O-])c1ccc(C=NO)nc1 [TCMDC-131967] |  |  |  |  |  |  |  |  |  |  |  |  |  |  |  |  |  |  |  | Average inhibition female (%) [1, 10]: 41.1%; % inhibition female (individual replicates) R1 [1, 10]: 34.5%; % inhibition female (individual replicates) R3 [1, 10]: 28.1%; % inhibition female (individual replicates) R4 [1, 10]: 43.8%; Average inhibition male (%) [2, 10]: 97.7%; % inhibition male (individual replicates) R1 [2, 10]: 97.9%; % inhibition male (individual replicates) R3 [2, 10]: 95.1%; % inhibition male (individual replicates) R4 [2, 10]: 101.6%
CS(=O)(=O)c1ccc(-n2nc(C(F)(F)F)cc2-c2ccc(C=NOCC(=O)O)o2)cc1 [TCMDC-132015] |  |  |  |  |  |  |  |  |  |  |  | 5.4% | -21.4% | 0.25% | -6.9% | 7.6% | -4.4% | -18.5% | -6.3% | 
CCc1c(CCNCCCCCCNCCc2ccc(Br)cc2)ccc(OC)c1OC.Cl [TCMDC-132045] |  |  |  |  |  |  |  |  |  |  |  | -8.2% | -48.0% | -18.3% | -21.6% | -2.0% | 7.0% | 22.9% | 10.8% | 
